The values that follow come from patent US10464925B2, “Methods to induce targeted protein degradation through bifunctional molecules” (Dana-Farber Cancer Institute, Inc., priority 2015, dated 2019).

Read-outs that look alike come from different tables or passages of the source.

Test [1] relates to IKZF1 adjoined to nanoluciferase (Nluc). As to the kind of experiment: IKZF1 Dual Luciferase Assay. The following applies: 293 FT cells, 4 hours; for IC50: read-out: Nluc/Fluc IKZF1 IC50. Further details: Nluc/Fluc IKZF1 Max Degradation: unit: %. The test is classed as cell-based.
In test [2] the target is T1, CRBN-DDB1 (Homo sapiens, UniProt Q96SW2).
T1 construct: 6xHis (given for the complex); made in house; host or cells: Sf9 cells (Invitrogen), pFastBac
As to the kind of experiment: CRBN-DDB1 Ligand-Displacement AlphaScreen Assay (thalidomide competition).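 Further: streptavidin donor and nickel chelate acceptor bead proximity signal after 30 min incubation, normalized with no-protein background as 0% and DMSO wells as 100% activity.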 The test is classed as binding.

Test [3] addresses T2, CRBN (Homo sapiens, UniProt Q96SW2).
T2 construct: endogenous in cells
The test can be described thus: Intracellular CRBN Engagement Assay (dFKBP7 rescue). The following applies: competition with 80 nM dFKBP7, 3 hours; read-out: FKBP7 rescue (EC50). The format is cell-based.

Test [4] deals with BRD4 (Homo sapiens, UniProt O60885). The test can be described thus: BRD4 AlphaScreen. The format is binding. Also noted: […]; His tag (inferred from capture on Ni-coated acceptor beads). On the technique in general: In Alpha technology, singlet oxygen from a donor bead excites a nearby acceptor bead.
Test [5] addresses T3, BRD4 adjoined to nanoluciferase (Nluc) (Homo sapiens, UniProt O60885+Q96SW2).
T3 construct: expressed in transfected cells
As to the kind of experiment: BRD4 Dual Luciferase Assay.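 On all read-outs here: transduced reporter cells exposed to compound for 4 h, then Nluc and Fluc luminescence read, each normalized to DMSO controls and expressed as Nluc/Fluc ratio per well.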 The test is classed as cell-based. To be noted: for Emax: BRD4 remaining at Emax, read-out: BRD4− Emax (percent remaining).

For test [6], the system named is 797. As to the kind of experiment: Cell viability, 797 cells (Table 4). The format is cell-based. The following applies: read-out: IC50 (nM) 797.
The mark [7] stands for this setting: biotin-thalidomide competition, read-out: THAL ALPHA (IC50).
The mark [8] stands for this setting: 4 hours, read-out: max degradation (dual luc).
The mark [9] stands for this setting: read-out: BRD4 max degradation(%) Dual Luciferase.

Consider `O=C1CCC(N2C(=O)c3cccc(O)c3C2=O)C(=O)N1` [Compound D-1, 2-(2,6-dioxopiperidin-3-yl)-4-hydroxyisoindoline-1,3-dione], for which the IC50 in test [1] is > 50 µM.

As to `O=C1CCC(N2C(=O)c3ccc([N+](=O)[O-])cc3C2=O)C(=O)N1` [Compound D-2, 2-(2,6-dioxopiperidin-3-yl)-5-nitroisoindoline-1,3-dione], the IC50 is 4130 nM in test [2] (read-out: CRBN alpha IC50) and > 50 µM in test [1].

On to `CC(=O)Nc1cccc2c1C(=O)N(C1CCC(=O)NC1=O)C2=O` [Compound D-3, N-(2-(2,6-dioxopiperidin-3-yl)-1,3-dioxoisoindolin-4-yl)acetamide], for which the IC50 in test [2] (read-out: CRBN alpha IC50) came to 667 nM. Further, the “Nluc/Fluc IKZF1 Max Degradation” value in test [1] was 38.24.

Take `Nc1cccc2c1C(=O)N(C1CCC(=O)NC1=O)C2=O` [Compound D-4, 4-amino-2-(2,6-dioxopiperidin-3-yl)isoindoline-1,3-dione]: the “Nluc/Fluc IKZF1 Max Degradation” value in test [1] is 66.43.

As for `CC(=O)Nc1ccc2c(c1)C(=O)N(C1CCC(=O)NC1=O)C2=O` [Compound D-5, N-(2-(2,6-dioxopiperidin-3-yl)-1,3-dioxoisoindolin-5-yl)acetamide], the IC50 is 266 nM in test [2] (read-out: CRBN alpha IC50) and > 50 µM in test [1].

Turning to `Cc1nc2ccccc2c(=O)n1C1CCC(=O)NC1=O` [Compound D-9, 3-(2-methyl-4-oxoquinazolin-3(4H)-yl)piperidine-2,6-dione], the IC50 in test [2] (read-out: CRBN alpha IC50) was 14500 nM. Besides, the “Nluc/Fluc IKZF1 Max Degradation” value in test [1] came out at 67.23.

On to `O=C1CCC(N2C(=O)c3cccc([N+](=O)[O-])c3C2=O)C(=O)N1` [Compound D-10, 2-(2,6-dioxopiperidin-3-yl)-4-nitroisoindoline-1,3-dione], for which the IC50 in test [2] (read-out: CRBN alpha IC50) is 3250 nM; in test [1], > 50 µM.

On to `Cc1nc2ccccc2c(=O)n1C1CC(=O)NC1=O` [Compound D-11, 3-(2-methyl-4-oxoquinazolin-3(4H)-yl)pyrrolidine-2,5-dione], for which the IC50 in test [2] (read-out: CRBN alpha IC50) is 126000 nM; in test [1] it was > 50 µM.

Consider `O=C1CCC(N2C(=O)c3ccc(C(=O)O)cc3C2=O)C(=O)N1` [Compound D-13, 2-(2,6-dioxopiperidin-3-yl)-1,3-dioxoisoindoline-5-carboxylic acid], for which the IC50 in test [1] was > 50 µM.

As to `O=C1CCC(N2C(=O)c3cccc(F)c3C2=O)C(=O)N1` [Compound D-14, 2-(2,6-dioxopiperidin-3-yl)-4-fluoroisoindoline-1,3-dione], the IC50 was 608 nM in test [2] (read-out: CRBN alpha IC50) and > 50 µM in test [1].

For `O=C1CCC(N2C(=O)c3ccc(C(=O)NCc4ccccc4)cc3C2=O)C(=O)N1` [Compound D-15, N-benzyl-2-(2,6-dioxopiperidin-3-yl)-1,3-dioxoisoindoline-5-carboxamide], the IC50 in test [2] (read-out: CRBN alpha IC50) was 619 nM; in test [1], > 50 µM.

`O=C1CCC(N2C(=O)c3cccc(NCc4ccccc4)c3C2=O)C(=O)N1` [Compound D-16, 4-(benzylamino)-2-(2,6-dioxopiperidin-3-yl)isoindoline-1,3-dione]: the IC50 in test [2] (read-out: CRBN alpha IC50) was 71.4 nM. Also, the “Nluc/Fluc IKZF1 Max Degradation” value in test [1] is listed as 67.23.

`Cc1nc2cccc(N)c2c(=O)n1C1CCC(=O)NC1=O` [Compound D-17, 3-(5-amino-2-methyl-4-oxoquinazolin-3(4H)-yl)piperidine-2,6-dione]: the “Nluc/Fluc IKZF1 Max Degradation” value in test [1] was found to be 67.59.

Take `CC(C)Nc1cccc2c1C(=O)N(C1CCC(=O)NC1=O)C2=O` [Compound D-18, 2-(2,6-dioxopiperidin-3-yl)-4-(isopropylamino)isoindoline-1,3-dione]: in test [2] (read-out: CRBN alpha IC50), the IC50 stood at 25.3 nM. Moreover, the “Nluc/Fluc IKZF1 Max Degradation” value in test [1] is 41.1.

On to `Cc1cccc2c1C(=O)N(C1CCC(=O)NC1=O)C2=O` [Compound D-19, 2-(2,6-dioxopiperidin-3-yl)-4-methylisoindoline-1,3-dione], for which the IC50 in test [2] (read-out: CRBN alpha IC50) turned out to be 147 nM. For the same compound, the “Nluc/Fluc IKZF1 Max Degradation” value in test [1] stood at 63.37.

Consider `CCN(CC)c1cccc2c1C(=O)N(C1CCC(=O)NC1=O)C2=O` [Compound D-21, 4-(diethylamino)-2-(2,6-dioxopiperidin-3-yl)isoindoline-1,3-dione], for which the IC50 in test [2] (read-out: CRBN alpha IC50) came to 164 nM. In test [1], the “Nluc/Fluc IKZF1 Max Degradation” value amounted to 17.98.

With `O=C1CCC(N2C(=O)c3cccc(CNC(=O)C4CC4)c3C2=O)C(=O)N1` [Compound D-22, N-((2-(2,6-dioxopiperidin-3-yl)-1,3-dioxoisoindolin-4-yl)methyl)cyclopropanecarboxamide], the IC50 in test [2] (read-out: CRBN alpha IC50) amounted to 375 nM. The “Nluc/Fluc IKZF1 Max Degradation” value in test [1] was found to be 52.96.

On to `CC(=O)NCc1cccc2c1C(=O)N(C1CCC(=O)NC1=O)C2=O` [Compound D-23, N-((2-(2,6-dioxopiperidin-3-yl)-1,3-dioxoisoindolin-4-yl)methyl)acetamide], for which the IC50 in test [2] (read-out: CRBN alpha IC50) stood at 646 nM. In addition, the “Nluc/Fluc IKZF1 Max Degradation” value in test [1] is listed as 59.03.

`O=C1CCC(N2C(=O)c3ccc(F)cc3C2=O)C(=O)N1` [Compound D-24, 2-(2,6-dioxopiperidin-3-yl)-5-fluoroisoindoline-1,3-dione]: the IC50 is 493 nM in test [2] (read-out: CRBN alpha IC50) and > 50 µM in test [1].

Consider `O=C1CCC(N2C(=O)c3ccc(NCc4ccccc4)cc3C2=O)C(=O)N1` [Compound D-25, 5-(benzylamino)-2-(2,6-dioxopiperidin-3-yl)isoindoline-1,3-dione], for which the IC50 was 58.9 nM in test [2] (read-out: CRBN alpha IC50) and > 50 µM in test [1].

Regarding `CC(C)Nc1ccc2c(c1)C(=O)N(C1CCC(=O)NC1=O)C2=O` [Compound D-26, 2-(2,6-dioxopiperidin-3-yl)-5-(isopropylamino)isoindoline-1,3-dione], the IC50 is 113 nM in test [2] (read-out: CRBN alpha IC50) and > 50 µM in test [1].

For `CCN(CC)c1ccc2c(c1)C(=O)N(C1CCC(=O)NC1=O)C2=O` [Compound D-27, 5-(diethylamino)-2-(2,6-dioxopiperidin-3-yl)isoindoline-1,3-dione], the IC50 is 200 nM in test [2] (read-out: CRBN alpha IC50) and > 50 µM in test [1].

On to `Cc1noc(C)c1-c1ccc(-c2nc3cnccn3c2NCC(=O)NCCCCNC(=O)COc2cccc3c2C(=O)N(C2CCC(=O)NC2=O)C3=O)cc1` (stereo not shown) [dBET13], for which the IC50 in test [2] (setting [7]) was 10.7 nM; in test [4] (read-out: BRD4 Alpha (IC50)), 6930 nM; in test [4] (read-out: IC50 (nM) BRD4), 6930 nM. Besides, the EC50 (usually the midpoint of the concentration-response curve) in test [3] was determined as 220 µM.

As for `Cc1noc(C)c1-c1ccc(-c2nc3cnccn3c2NCC(=O)NCCCOCCOCCOCCCNC(=O)COc2cccc3c2C(=O)N(C2CCC(=O)NC2=O)C3=O)cc1` (stereo not shown) [dBET14], the IC50 in test [2] (setting [7]) turned out to be 12.4 nM; in test [4] (read-out: BRD4 Alpha (IC50)), 8830 nM; in test [4] (read-out: IC50 (nM) BRD4) it was 8830 nM. For the same compound, in test [3], the EC50 is 227 µM.

In the case of `Cc1sc2c(c1C)C(c1ccc(Cl)cc1)=N[C@@H](CC(=O)NCCCCOc1cccc3c1C(=O)N(C1CCC(=O)NC1=O)C3=O)c1nnc(C)n1-2` (stereo partly shown) [dBET28], the values for the Dmax in test [5] (setting [8]) and in test [5] (setting [9]) were < 5% and > 5%, respectively. Also, in test [5], the Emax (as a rule, the size of the effect at its maximum, as opposed to the concentration needed) was found to be 91.2%. Also, the IC50 in test [2] (setting [7]) amounted to 17.1 nM. Moreover, the 50% effective concentration (EC50) in test [3] was 7.73 µM.

Regarding `Cc1c(C(=O)NCCCCNC(=O)COc2cccc3c2C(=O)N(C2CCC(=O)NC2=O)C3=O)sc2c1C(c1ccc(Cl)cc1)=N[C@@H](CC(=O)NCCCN1CCN(C)CC1)c1nnc(C)n1-2` (stereo partly shown) [dBET30], in test [5], the “Conc@Emax” value came to 50 µM and the maximal response (Emax) turned out to be 26.2%. In test [5] (setting [8]), the Dmax was determined as 78.5%. Besides, the Dmax in test [5] (setting [9]) was 79%. In addition, in test [2] (setting [7]), the IC50 stood at 26.5 nM. Besides, the EC50 in test [3] worked out at 3140 µM.

With `Cc1cnc(Nc2ccc(N3CCN(C(=O)CCC(=O)NCCCCNC(=O)COc4cccc5c4C(=O)N(C4CCC(=O)NC4=O)C5=O)CC3)cc2)nc1Nc1cccc(S(=O)(=O)NC(C)(C)C)c1` (stereo not shown) [dBET32], the IC50 in test [6] was determined as 5730 nM; in test [4] (read-out: BRD4 Alpha (IC50)) it was 3300 nM; in test [4] (read-out: IC50 (nM) BRD4) it was 3300 nM. Besides, the Dmax in test [5] (setting [8]) and in test [5] (setting [9]) was 50% each time.

For the compound `Cc1cnc(Nc2ccc(N3CCN(C(=O)CCC(=O)NCCCCCCCCNC(=O)COc4cccc5c4C(=O)N(C4CCC(=O)NC4=O)C5=O)CC3)cc2)nc1Nc1cccc(S(=O)(=O)NC(C)(C)C)c1` (stereo not shown) [dBET33], the IC50 in test [6] turned out to be 4000 nM; in test [4] (read-out: BRD4 Alpha (IC50)), 4990 nM; in test [4] (read-out: IC50 (nM) BRD4) it was 4990 nM. The figures for the Dmax in test [5] (setting [8]) and in test [5] (setting [9]) were 9.96% and < 10%, respectively.

As for `Cc1cnc(Nc2ccc(N3CCN(C(=O)CCC(=O)NCCCOCCOCCOCCCNC(=O)COc4cccc5c4C(=O)N(C4CCC(=O)NC4=O)C5=O)CC3)cc2)nc1Nc1cccc(S(=O)(=O)NC(C)(C)C)c1` (stereo not shown) [dBET34], the IC50 in test [6] was determined as 3920 nM; in test [4] (read-out: BRD4 Alpha (IC50)), 1540 nM; in test [4] (read-out: IC50 (nM) BRD4) it was 1540 nM. Besides, the Dmax in test [5] (setting [8]) and in test [5] (setting [9]) was 24% in each case.

As for `Cc1sc2c(c1C)C(c1ccc(Cl)cc1)=N[C@@H](CC(=O)NCCCCC(=O)Nc1cccc3c1CN(C1CCC(=O)NC1=O)C3=O)c1nnc(C)n1-2` (stereo partly shown) [dBET42], the IC50 in test [6] is 7720 nM. The Dmax in test [5] (setting [8]) and in test [5] (setting [9]) was 10% in each case.

On to `Cc1sc2c(c1C)C(c1ccc(Cl)cc1)=N[C@@H](CC(=O)NCCCCCCC(=O)Nc1cccc3c1CN(C1CCC(=O)NC1=O)C3=O)c1nnc(C)n1-2` (stereo partly shown) [dBET43], for which the IC50 in test [6] was found to be 2250 nM. Also, the Dmax in test [5] (setting [8]) and in test [5] (setting [9]) was 13% throughout.

On to `Cc1sc2c(c1C)C(c1ccc(Cl)cc1)=N[C@@H](CC(=O)NCCCCCCCC(=O)Nc1cccc3c1CN(C1CCC(=O)NC1=O)C3=O)c1nnc(C)n1-2` (stereo partly shown) [dBET44], for which the IC50 in test [6] was 719 nM. In test [5] (setting [9]), the Dmax is < 10%.
